What is called EC50 is the midpoint of the concentration-response curve.

Active and inactive are the calls of the source. The rule behind the calls is not given here.

This experiment concerns S. cerevisiae GAL1 promoter reporter activation counterscreen. Kind of experiment: yeast Gal1p promoter activation – S. cerevisiae, artefact control for yeast lifespan extension project (AID 816).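 Note: yeast growth read after 24 h of incubation with compounds.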
Consider `Cc1ccc(C(C2=C(O)CC(C)(C)CC2=O)C2C(=O)CC(C)(C)CC2=O)o1` (centres undefined), for which the EC50 is > 40 µM (inactive).

Regarding `Oc1ccc2ccccc2c1C=Nc1ccc(N2CCOCC2)cc1`, the EC50 was > 40 µM (inactive).

Consider `O=C(NCc1cccnc1)c1ccc(S(=O)(=O)N2CCCCC2)cc1`, for which the EC50 is > 40 µM (inactive).

For `CCCc1nc2c(c(=O)c3ccccc3n2C)c(=O)n1C1CCCCCC1`, the EC50 is > 40 µM (inactive).

Take `COC(=O)C1=C(N)OC2=C(C(=O)CC(C)(C)C2)C1c1cccs1` (centres undefined): the EC50 is > 40 µM (inactive).

For `Cc1ccccc1NC(=O)c1ccccc1`, the EC50 is > 40 µM (inactive).

Take `CC(=O)Nc1ccc(C(=O)CSc2nnc(-c3ccc(O)cc3)n2CC2CCCO2)cc1` (centres undefined): the EC50 is > 40 µM (inactive).

For `CCCn1c(SCC(=O)c2ccc3c(c2)NC(=O)CO3)nc2ccccc21`, the EC50 was > 40 µM (inactive).

In the case of `Cc1ccc2[nH]c(=O)c(CN(CCO)Cc3nnnn3CCc3ccccc3)cc2c1`, the EC50 was > 40 µM (inactive).

On to `O=S(=O)(Nc1cccc2c1CCCC2)c1ccc(Cl)cc1`, for which the EC50 is > 40 µM (inactive).

As for `O=C(O)c1cccc2c1C(=O)N(C1CCCCC1)C2`, the EC50 is > 40 µM (inactive).

For the compound `O=c1cc(-c2c(F)c(F)c(F)c(F)c2F)oc2c(F)c(F)c(F)c(F)c12`, the EC50 is > 40 µM (inactive).

Consider `Cc1ccc2nc(-c3ccc(NC(=O)CSc4ccccc4)cc3)[nH]c2c1`, for which the EC50 was > 40 µM (inactive).

With `CC(=O)N1CCN(CCN=CC2=C(O)CC(c3cccs3)CC2=O)CC1` (centres undefined), the EC50 was > 40 µM (inactive).

In the case of `COc1c(Br)cc(Br)cc1/C=N/n1c(C)nnc1C`, the EC50 is > 40 µM (inactive).

As to `O=C(CCN1CCCCCC1)Nc1ccc(F)cc1`, the EC50 is > 40 µM (inactive).

Consider `CCc1nc(SCC(=O)c2ccc3c(c2)OCCO3)c2ccccc2n1`, for which the EC50 was > 40 µM (inactive).

On to `COc1ccc2c(=O)c3c(=O)n(Cc4ccco4)c(-c4ccc(C)cc4)nc3oc2c1`, for which the EC50 is > 40 µM (inactive).

With `CC(C)c1noc2ncc(C(=O)c3cc(Cl)cc(Cl)c3O)cc12`, the EC50 was > 40 µM (inactive).

In the case of `O=c1c2c3c(sc2ncn1/N=C/c1ccc([N+](=O)[O-])o1)CCCC3`, the EC50 is > 40 µM (inactive).

Consider `Oc1ccc2ccccc2c1C=Nc1ccccc1-c1nc2ccccc2[nH]1`, for which the EC50 was > 40 µM (inactive).

For the compound `CC1CCc2cc(F)cc3c(O)c(C(=O)NCc4ccco4)c(=O)n1c23` (centres undefined), the EC50 was > 40 µM (inactive).

Regarding `CN1OC(c2ccccc2)=C(CO)C1c1ccccc1` (centres undefined), the EC50 is > 40 µM (inactive).

For `CCCCC(c1nnnn1CC1CCCO1)N1CCN(c2nc3ccccc3s2)CC1` (centres undefined), the EC50 is > 40 µM (inactive).

`COc1cnc(-c2ccccn2)nc1Sc1cccc(Cl)c1`: the EC50 was > 40 µM (inactive).

Regarding `COc1ccc(NCc2nc3ccccc3n2CCOc2ccccc2)cc1`, the EC50 was > 40 µM (inactive).

For `COc1ccccc1CNC(=O)C(CCSC)NS(=O)(=O)c1ccc2c(c1)oc(=O)n2C` (centres undefined), the EC50 was > 40 µM (inactive).

Regarding `CCOC(=O)C1C(c2cccs2)NC(=O)N(C)C1(O)C(F)(F)F` (centres undefined), the EC50 was > 40 µM (inactive).

On to `O=C1C=CCC(/C=C/c2ccccc2)O1` (centres undefined), for which the EC50 was > 40 µM (inactive).

In the case of `COc1cccc(C(=O)Oc2cc(N)n(S(=O)(=O)c3ccc(C)cc3)n2)c1OC`, the EC50 is > 40 µM (inactive).

`CN(C)/C=C(/C(=O)c1ccc(Cl)cc1Cl)S(=O)(=O)c1ccc(Cl)cc1`: the EC50 was > 40 µM (inactive).

`COc1ccc(C(=O)On2c(-c3ccc(Br)cc3)nc3ccccc3c2=O)cc1`: the EC50 is > 40 µM (inactive).

Turning to `Cc1ccc(C(=O)/C=C\C(=O)c2ccc(C)cc2)cc1`, the EC50 was > 40 µM (inactive).

Regarding `O=[N+]([O-])c1cc(S(=O)(=O)N2CCCCCC2)ccc1F`, the EC50 was > 40 µM (inactive).

`O=C(Nc1scc(-c2ccc(F)cc2)c1C(=O)O)c1ccco1`: the EC50 is > 40 µM (inactive).

For the compound `Cc1ccc2[nH]c3c(c2c1)CC/C(=C/c1ccccc1)C3=O`, the EC50 was > 40 µM (inactive).

Consider `Cn1nnnc1SCCNCC#Cc1ccccc1`, for which the EC50 was > 40 µM (inactive).

Regarding `Cc1ccc(N(C)C(=O)Oc2ccc(C(=O)c3ccc(Cl)cc3)cc2)cc1`, the EC50 is > 40 µM (inactive).

Consider `ClC(Cl)(c1nnnn1-c1ccccc1)c1nnnn1-c1ccccc1`, for which the EC50 is > 40 µM (inactive).

Turning to `O=C1OC2(CCCCC2)OC(=O)C1=CNc1nc2ccccc2s1`, the EC50 is > 40 µM (inactive).

With `CCCCN(CCCC)c1ccc(C(=O)c2ccccc2C(=O)O)c(O)c1`, the EC50 was > 40 µM (inactive).

Take `CCCCCOC(=O)CSc1nc2c(c(=O)[nH]c(=O)n2C)n1CCc1ccccc1`: the EC50 was > 40 µM (inactive).

Regarding `N#Cc1c(-c2ccccc2)c(-c2ccccc2)nn(CC(=O)NNC(=O)Nc2ccccc2)c1=O`, the EC50 is > 40 µM (inactive).

For the compound `O=c1c2ccccc2nc(-c2ccc(Cl)c(Cl)c2)n1O`, the EC50 is > 40 µM (inactive).

`O=c1cc(O)c2c(=O)n(-c3ccccc3)c3c(c2o1)CCCCCC3`: the EC50 was > 40 µM (inactive).

For the compound `CCc1ccc2c(c1)CCCN2C(=O)c1ccccc1C(=O)O`, the EC50 was > 40 µM (inactive).

Take `CN(C)C=C1C(=O)N(C2CCCCC2)C(=O)N(C2CCCCC2)C1=O`: the EC50 is > 40 µM (inactive).

As to `COc1ccc(-c2cc(C(F)(F)F)nc(S(C)(=O)=O)n2)cc1OC`, the EC50 was > 40 µM (inactive).

`O=C(O)CCCCCN1C(=O)/C(=C\c2ccncc2)SC1=S`: the EC50 is > 40 µM (inactive).

For `CN(C)c1ccc(S(=O)(=O)c2ccc(Cl)cc2)cc1`, the EC50 is > 40 µM (inactive).

Consider `COc1ccc(-c2cc(C(F)(F)F)nc(S(C)(=O)=O)n2)cc1`, for which the EC50 is > 40 µM (inactive).

For the compound `CCc1oc2ccccc2c1C(=O)CCN1CCCCC1`, the EC50 was > 40 µM (inactive).

For the compound `CC(=C1C(=O)c2ccccc2C1=O)N1CCN(c2ccccn2)CC1`, the EC50 is > 40 µM (inactive).

Regarding `CCCCC(=O)Nc1ccc(C(=O)NNC(=S)NC(=O)c2cccs2)cc1`, the EC50 was > 40 µM (inactive).

In the case of `C/C(=N\NC(=O)c1cccc(Cl)c1)C1C(=O)c2ccccc2C1=O`, the EC50 was > 40 µM (inactive).

As to `Cc1cc(NS(=O)(=O)c2ccc(CC(C)C)cc2)no1`, the EC50 is > 40 µM (inactive).

As to `CCn1cc(C(=O)O)c(=O)c2ccc(C)nc21`, the EC50 was > 40 µM (inactive).

In the case of `COC(=O)CSc1ncccc1-c1nc2ccccc2[nH]1`, the EC50 was > 40 µM (inactive).

As to `O=C(CCl)N1c2ccccc2OCC1c1ccccc1` (centres undefined), the EC50 is > 40 µM (inactive).

As to `CC(C)n1c(=O)c2c(O)cc(=O)oc2c2ccccc21`, the EC50 is > 40 µM (inactive).

For `COc1cccc(/C=C/C(=O)c2c(O)cc(C)oc2=O)c1O`, the EC50 is > 40 µM (inactive).

As to `COc1ccc(C(=O)C(CN2CCOCC2)c2ccccc2)cc1` (centres undefined), the EC50 is > 40 µM (inactive).

For `CC1=CN2C(=N)/C(=C/c3ccc([N+](=O)[O-])o3)C(=O)N=C2S1`, the EC50 is > 40 µM (inactive).

For the compound `C=C(C)CN(CC)C(=O)COc1ccc(S(=O)(=O)Nc2ccc(OC)cc2)cc1`, the EC50 is > 40 µM (inactive).
